According to patent US6960574B2, “Antagonists of RF-amide neuropeptides” (University of Florida, priority 2002, dated 2005):
Like-named read-outs stand apart in the source and are kept apart here. Ends that are not written are not given here. Peptide text beside a SMILES is read from it. * marks the point of attachment. Dansyl = CN(C)c1cccc2c(S(=O)(=O)*)cccc12; Desaminotyrosyl = O=C(CCc1ccc(O)cc1)*

Key:
[1] = target: receptor labeled by the radioiodinated analogue of 1 (4, [125I]-YLFQPQRF-NH2); neuropeptide FF receptor; assay: Competitive radioligand binding against 4 ([125I]Y8F-amide); conditions: for Ki: competition against 4; for Relative Binding Index (RBI): mixture-based positional scanning, difference from averaged radioligand displacement of whole library (0), about 80 a.u. = 10-fold change in Ki
[2] = test system: abstinence-like signs induced by neuropeptide FF (1); conditions: cited from earlier work
[3] = target: receptor labeled by the radioiodinated analogue of 1 (4, [125I]-YLFQPQRF-NH2); neuropeptide FF receptor; conditions: CNS membrane preparation, literature value; cited from earlier work
[4] = test system: naloxone-precipitated withdrawal symptoms; conditions: cited from earlier work
[5] = Immobilized artificial membrane (IAM) chromatography; type: physicochemical
From the text: The purity of this new neuropeptide FF antagonist was confirmed by combustion analysis [Table 1] (data were within ±0.4% of calculated values) and ESI mass spectrometry (no impurities exceeding 1% based on relative ion abundance). […] The compounds were also characterized by immobilized artificial membrane (IAM) chromatography, a method that furnishes capacity factors whose logarithm generally correlates with in vivo absorption [Pidgeon, et al., J. Med. Chem. 1995, 38, 590-594] including penetration across the BBB [Reichel, et al., Pharm. Res. 1998, 15, 1270-1274].
The combinatorial libraries herein were prepared on a SynPep (Dublin, Calif.) multiple peptide synthesizer. A Synthor 2000, Peptide International (Louisville, Ky.) instrument was used for the preparation of the individual compounds by Fmoc chemistry. Immobilized artificial membrane (IAM) chromatography was performed on a system that included a model SP 8810 precision isocratic pump, an SP 8880 autosampler with a 20-μL injection loop, an SP 8450 variable wavelength UV/VIS detector operated at 254 nm, and SP 4290 computing integrator (all from ThermoSeparation|SpectraPhysics, Fremont, Calif.). RP-HPLC purification was done on a system composed of an SP 200 binary gradient pump (ThermoSeparation), a Rheodyne (Cotati, Calif.) model 7125 injector valve equipped with a 5-mL sample loop, and an SP 100 UV/VIS detector (ThermoSeparation) operated at 210 nm. Electrospray ionization (ESI) and tandem mass spectra were obtained on a quadrupole ion trap instrument (LCQ, Finnigan MAT, San Jose, Calif.). NMR spectra were recorded on Bruker AVANCE instruments (Bremen, Germany). Resonance frequencies were 500 and 600 MHz for ^1H and 127 MHz for ^13C. The samples were dissolved in H2O/D2O (8/2, v/v).

[6] = after systemic administration; cited from earlier work
[7] = test system: opiate abstinence syndrome; conditions: 2 μg i.c.v.; cited from earlier work

CN(C)c1cccc2c(S(=O)(=O)N3CCCC3C(=O)NC(CCC(N)=O)C(=O)NC(CCCNC(=N)N)C(N)=O)cccc12 (stereo not drawn) [Compound 3, Dansyl-Pro-Gln-Arg-NH2, reference compound] (Dansyl-Pro-Gln-Arg-NH2; configuration not given here)
Ki [1]: 13600 nM
Relative Binding Index (RBI) [1]: −34 a.u.
QMAS induced by 1 ([2]; rat, in vivo): dose-dependently antagonized
inhibition constant (Ki) [3]: micromolar range
naloxone-precipitated withdrawal symptoms in morphine-dependent rats ([4]; administered subcutaneously): blunted
kIAM′ (IAM capacity factor) [5]: 5.9
log kIAM′ [5]: 0.77

CN(C)c1cccc2c(S(=O)(=O)NCC(=O)NC(CO)C(=O)NC(CCCNC(=N)N)C(N)=O)cccc12 (stereo not drawn) [Compound 5, dansyl-Gly-Ser-Arg-NH2] (Dansyl-Gly-Ser-Arg-NH2; configuration not given here)
Ki [1]: 1400 ± 500 nM
Relative Binding Index (RBI) [1]: 46 a.u.
increase in binding affinity compared to 3 ([1]; ratio of Ki values): approximately 10 fold
kIAM′ (IAM capacity factor) [5]: 8.0
log kIAM′ [5]: 0.90

C[C@@H](O)[C@H](NC(=O)[C@H](Cc1ccc(O)cc1)NS(=O)(=O)c1cccc2c(N(C)C)cccc12)C(=O)N[C@@H](CCCNC(=N)N)C(N)=O [Dansyl-YTR-amide] (Dansyl-Tyr-Thr-Arg-NH2)
Relative Binding Index (RBI) [1]: 13 a.u.

CC(C)[C@H](NC(=O)[C@H](Cc1ccc(O)cc1)NS(=O)(=O)c1cccc2c(N(C)C)cccc12)C(=O)N[C@@H](CCCNC(=N)N)C(N)=O [Dansyl-YVR-amide] (Dansyl-Tyr-Val-Arg-NH2)
Relative Binding Index (RBI) [1]: 2 a.u.

CN(C)c1cccc2c(S(=O)(=O)N[C@@H](Cc3ccc(O)cc3)C(=O)N[C@@H](Cc3c[nH]c4ccccc34)C(=O)N[C@@H](CCCNC(=N)N)C(N)=O)cccc12 [Dansyl-YWR-amide] (Dansyl-Tyr-Trp-Arg-NH2)
Relative Binding Index (RBI) [1]: 16 a.u.

CN(C)c1cccc2c(S(=O)(=O)N[C@@H](Cc3ccc(O)cc3)C(=O)N[C@@H](Cc3ccc(O)cc3)C(=O)N[C@@H](CCCNC(=N)N)C(N)=O)cccc12 [Dansyl-YYR-amide] (Dansyl-Tyr-Tyr-Arg-NH2)
Relative Binding Index (RBI) [1]: 6 a.u.

Desaminotyrosyl-Phe-Leu-Phe-Gln-Pro-Gln-Arg-NH2 (Desaminotyrosyl-FLFQPQR-NH2; SMILES CC(C)C[C@H](NC(=O)[C@H](Cc1ccccc1)NC(=O)CCc1ccc(O)cc1)C(=O)N[C@@H](Cc1ccccc1)C(=O)N[C@@H](CCC(N)=O)C(=O)N1CCC[C@H]1C(=O)N[C@@H](CCC(N)=O)C(=O)N[C@@H](CCCNC(=N)N)C(N)=O) [Compound 2]
Ki [1]: 840 ± 180 nM
abstinence-like signs induced by 1 in opiate-naive rats ([2]; icv administration): attenuated
CNS bioavailability [6]: did not show any CNS bioavailability
abstinence signs upon naloxone challenge in morphine-dependent animals ([4]; icv administration): attenuated

Phe-Leu-Phe-Gln-Pro-Gln-Arg-Phe-NH2 (FLFQPQRF-NH2) [Compound 1, endogenous neuropeptide FF]
opiate abstinence syndrome in morphine-dependent rats [7]: precipitates
quasi-morphine-abstinence syndrome (QMAS) in opiate-naive rats ([2]; 15 μg i.c.v.): induces

Pro-Phe-Arg(Tic)-NH2 [Compound 3a]
potency (or efficacy) in the pharmacological tests employed ([4]; compared with 3): less than that of 3
naloxone-precipitated withdrawal symptoms in morphine-dependent rats ([4]; systemic administration): attenuated
